Laboratory results from patent publication US20140106387A1, “METHOD FOR CONTROLLING NAD(P)/NAD(P)H RATIO BY OXIDOREDUCTASE” (MD BIOALPHA CO., LTD., priority 2006, published 2014).

Tests used:
[1] = AMP/ATP, NAD+/NADH and NADP+/NADPH ratios in liver after intravenous administration; assay type: in vivo, mouse; conditions: Lean mice
[2] = blood metabolic parameters in C57BL/6 DIO mice; assay type: in vivo, mouse
Protocol: O2 consumption of animals was recorded by a known method. For indirect calorimetry, mice were individually housed in calorimetry chambers (Oxymax OPTO-M3 system; Columbus Instruments, Columbus, Ohio). Animals were allowed to acclimate to a new environment for 48 hours prior to the experiment, and amounts of O2 consumption and CO2 production were measured for […] every 30 minutes. Mice were given free access to food and drinking water during the first 24 h period, and animals were given access to drinking water only during the second 24 h period. Blood samples were taken from a heparinized tube, immediately placed on ice, centrifuged and stored at −20[…] for future use. Enzymatic colorimetry was employed for quantification of triglyceride (TG), total cholesterol, free fatty acids, and glucose (Beckman Instruments, CA). Plasma insulin (Linco Research, MO), TNFα (R&D System), adiponectin (Linco Research, MO), resistin (KOMED) and leptin (Linco Research, MO) were quantified by ELISA.

AMPK, ACC = assay: AMPK and ACC phosphorylation in HepG2 cells (Western blot); assay type: cell-based, human
Protocol: Cells were lysed in SDS sample buffer (62.5 mM Tris HCl (pH 6.8), 6% (w/v) SDS, 30% glycerol, 125 mM DTT, and 0.03% (w/v) bromophenol blue). The total cell lysates were boiled at a temperature of 100° C. for 5 min and electrophoresed on a sodium dodecyl sulfate-polyacrylamide gel, and proteins were transferred on a nitrocellulose membrane. The membrane was reacted in TBS (5% (w/v) milk and 0.1% Tween 20) for 1 hour, and then reacted with primary antibodies for 2 hours. Next, the membrane was developed using HRP-conjugated secondary antibodies (Phototope-HRP Western Blot Detection Kit, New England Biolabs, Beverly, Mass.).
HepG2 (human hepatoma cell line), HEK293 (Human embryonic kidney cell line), and C2C12/L6 myoblasts were purchased from American Type Culture Collection (ATCC, Manassas, Va., USA). LKB−/− MEFs were purchased from R.A. DePinho. Rat ventricular myocytes were enzymatically isolated from the heart of adult […] by a known method. Phosphorylation of AMPK (Thr172) and ACC (Ser79) was measured by Western blot analysis using Cell Signaling Technologies and pan- and phospho-specific antibodies (Upstate Biotechnology, Inc., Lake Placid, N.Y.).
This Example was carried out to confirm whether an NQO1 activator has effects through NQO1 on phosphorylation of AMPK and ACC that are intracellular energy-regulating proteins. In order to examine phosphorylation of AMP kinase and ACC (acetyl-CoA carboxylase) by the NQO1 activator pyrano-1,2-naphthoquinone, HepG2 cells (Human hepatoma cell line) were seeded onto a 6-well plate at a density of 1×10^5 cells per well, and cultured in a RPMI+10% FBS medium. After growing the cells for 24 hours, the culture medium was replaced with a serum-free RPMI medium and cells were treated with pyrano-1,2-naphthoquinone (10 μM) for 30 min, 1 hr, 2 hrs, 4 hrs and 6 hrs, in combination with a control (DMSO). Anti-ACC and Anti-pS79-ACC were used to observe phosphorylated ACC, whereas Anti-AMPK and Anti-pT172-AMPK were used to observe phosphorylated AMP kinase.
In order to investigate the importance of an NQO1 protein in phosphorylation of AMP kinase, HepG2, MCF-7 and HEK293 cells were seeded onto 60 mm plates at a density of 1×10^6 cells/plate. After growing the cells for 24 hours, the culture medium was replaced with a serum-free medium, and cells were treated with pyrano-1,2-naphthoquinone (10 μM) for 30 min, respectively, in combination with a control group (DMSO). Cells were lysed in RIPA buffer and amounts of all proteins were quantified using a spectrophotometer, and 50 μg of the protein was subjected to electrophoresis. AMP kinase phosphorylation was examined using Anti-AMPK and Anti-pT172-AMPK, whereas the NQO1 protein was assayed using Anti-NQO1. […]

HEK293 cells = assay: intracellular NADH / NAD(P)H concentration in HEK293 cells; assay type: cell-based, human; conditions: for intracellular NADH concentration: 2 hours
Protocol: 2) Determination of Intracellular NAD(P)H Using a Water-Soluble Tetrazolium Salt-8 (WST-8) in Living Cells:
A water-soluble tetrazolium salt was used to monitor the amount of NAD(P)H through its reduction to a yellow colored formazan dye. The total amount of NAD(P)H within viable cells in the medium was determined periodically by a spectrophotometer. Cells were seeded in 96-well plates (2×10^4 cells/well) and were cultured in 100 μl of a medium containing fetal bovine serum (FBS) and antibiotics for 24 hours. Immediately after treatment of the cells with a candidate compound (e.g., pyrano-1,2-naphthoquinone) at indicated concentrations and a 1/10 volume of a CCK-8 solution (Dojindo Molecular Technology), absorbance measurements were carried out using a spectrophotometer. The CCK-8 solution consisted of a water-soluble 2-(2-methoxy-4-nitrophenyl)-3-(4-nitrophenyl)-5-(2,4-disulfophenyl)-2H-tetrazolium monosodium salt (WST-8, 5 mM) and 1-methoxy-5-methylphenazinium methylsulfate (1-methoxy PMS, 0.2 mM) as an electron mediator. WST-8 produced a water-soluble yellow colored formazan dye through its bioreduction either in the presence of an electron carrier, 1-methoxy PMS and NAD(P)H or directly by NAD(P)H. Therefore, the reduction in tetrazolium salts mostly depends on the amount of intracellular NAD(P)H. The amount of formazan dye produced by the living cells in the medium was determined periodically at a wavelength of 450 nm (reference filter. 650 nm) by a spectrophotometer and compared to the values of control. In addition, a medium blank was prepared with only medium and physiological saline.
In order to monitor monochromatic fluorescence (350 nm), light was illuminated using a 75 W xenon arc lamp directed via a 10 Hz chopper wheel; specific fluorescence intensity was measured at a wavelength of 405±15 nm and 460±10 nm.
Specifically, the NQO1 activity and changes in the intracellular NAD(P)H fluorescence concentration in the presence/absence of NQO1 activity were measured in HepG2, HEK293 and pSG5 HA-NQO1 or pSG5 HA NQO1 C609T-inserted HEK293 cells.

## CC1(C)CCC2=C(O1)c1ccccc1C(=O)C2=O [βL, 2,2-Dimethyl-3,4-dihydro-2H-benzo[h]chromene-5,6-dione]
[1]
  changes in the AMP/ATP ratio and NAD+/NADP ratio compared with control: less changes
[2]; 50 mg/kg daily oral
  blood level of resistin: significantly improved
  insulin resistance and leptin resistance: improved
[2]; Days 3, 7, 14, 28 and 56, 50 mg/kg daily oral
  blood fat and glucose levels: significantly improved
AMPK, ACC; HepG2, 10 μM
  duration of AMP kinase phosphorylation effects: up to 6 hours
  initial time point at which phosphorylation of AMP kinase was observed: 30 min
  phosphorylation of ACC: also phosphorylated
AMPK, ACC; HepG2 cells
  ACC phosphorylation and AMPK phosphorylation/activation: accelerates
HEK293 cells; HEK293 cells after insertion of an NQO1 gene
  intracellular NADH concentration: concentration-dependent decrease of NADH
HEK293 cells; HEK293 cells having no NQO1 activity
  intracellular NADH concentration: no change in an NADH concentration
HEK293 cells; HEK293 cells with insertion of a wild-type NQO1 gene
  NAD(P)H oxidation: βL-facilitated NAD(P)H oxidation
HEK293 cells; HEK293 cells with insertion of catalytically inactive NQO1C609T gene
  NAD(P)H oxidation: no oxidation of NAD(P)H
HEK293 cells; control HEK293 cells without the NQO1 activity
  NAD(P)H oxidation: no such changes
